# In patent publication US20090005364A1, “Azole Derivatives With Antimuscarinic Activity” (priority 2004, published 2009):
# Target: T1, human M2-receptors (Homo sapiens, UniProt P08172)
# T1 construct: expressed in transfected cells; host or cells: CHO-K1 clone cells; crude membrane fraction
# T1 sequence (P08172 1-466): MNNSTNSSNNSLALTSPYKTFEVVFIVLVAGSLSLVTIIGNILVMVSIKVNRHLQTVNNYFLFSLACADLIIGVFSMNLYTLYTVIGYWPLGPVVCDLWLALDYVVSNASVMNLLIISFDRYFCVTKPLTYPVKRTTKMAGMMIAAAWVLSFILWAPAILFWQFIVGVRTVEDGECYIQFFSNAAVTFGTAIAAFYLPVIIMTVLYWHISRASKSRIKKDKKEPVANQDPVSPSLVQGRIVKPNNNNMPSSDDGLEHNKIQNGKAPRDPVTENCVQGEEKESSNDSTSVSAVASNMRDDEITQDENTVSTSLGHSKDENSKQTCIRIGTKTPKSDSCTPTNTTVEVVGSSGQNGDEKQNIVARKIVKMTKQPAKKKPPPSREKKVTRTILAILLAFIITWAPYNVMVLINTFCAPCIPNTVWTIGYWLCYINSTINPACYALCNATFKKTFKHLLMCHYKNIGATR
# Assay: radioligand binding assay, M2 receptor ([3H]-N-methyl scopolamine)
# Details: membranes of CHO-K1 cells expressing human M2; [3H]-N-methyl scopolamine 0.1-0.3 nM; 60 min, room temperature
# Protocol: (§1) Cell Lines and Membrane Preparations
# (§2) CHO—K1 clone cells expressing the human M1, M2 or M3-receptors (Swissprot P11229, P08172, P20309 respectively) were harvested in Ca^++/Mg^++ free phosphate-buffered saline and collected by centrifugation at 1500 rpm for 3 min. The pellets were resuspended in ice cold buffer A (15 mM Tris-HCl pH 7.4, 2 mM MgCl2, 0.3 mM EDTA, 1 mM EGTA) and homogenized by a PBI politron (setting 5 for 15 s).
# (§3) Radioligand Binding Conditions
# (§4) The day of experiment, frozen membranes were resuspended in buffer C (50 mM Tris-HCl pH 7.4, 2.5 mM MgCl2, 1 mM EDTA). […] The non specific binding was determined in the presence of cold N-methyl scopolamine 10 μM. Samples (final volume 0.75 ml) were incubated at room temperature for 120 min for Ml, 60 min for M2 and 90 min for M3 binding assay. The reaction was terminated by rapid filtration through GF/B Unifilter plates and two washes (0.75 ml) with cold buffer C using a Packard Filtermate Harvester. Radioactivity on the filters was measured by a microplate scintillation counter TopCount NXT (Camberra Packard).
row,Compound,Ki [nM]
1,O=C1NC(c2cccs2)(c2cccs2)CN1C1CCN(Cc2cccc(F)c2)CC1 [Compound 18ad],187
2,C[N+]1(CC(=O)c2cccs2)CC[C@@H](N2CC(c3ccc(F)cc3)(c3ccc(F)cc3)NC2=O)C1 (some centres unmarked) [Compound 19bq],88.5
3,O=C1NC(c2ccc(F)cc2)(c2ccc(F)cc2)CN1C1CCN(Cc2cccc(Cl)c2)CC1 [Compound 18ab],955
4,"O=C1NC(c2ccccc2)(c2ccccc2)CN1C1CCN(Cc2ccccc2)CC1 [Compound 27a, 3-(1-benzyl-piperidin-4-yl)-5 5-diphenyl-imidazolidin-2-one]",80.1
5,O=C1NC(c2cccs2)(c2cccs2)CN1C1CCN(Cc2ccccc2)CC1 [Compound 27i],96.8
6,C[N+]1(CC(=O)c2cccs2)CC[C@@H](N2CC(c3ccc(F)cc3)(c3ccc(F)cc3)NC2=O)C1 (some centres unmarked) [Compound 19bp],80.9
7,O=C1NC(c2ccccc2)(C2CCCCC2)CN1C1CCN(Cc2ccccc2)CC1 (centres unmarked) [Compound 27c],73.3
8,O=C1NC(c2ccc(F)cc2)(c2ccc(F)cc2)CN1C1CCN(Cc2cccc(F)c2)CC1 [Compound 18an],1140
9,O=C1NC(c2ccc(F)cc2)(c2ccc(F)cc2)CN1C1CCN(Cc2ccccc2)CC1 [Compound 27h],206
10,Cc1cccc(CN2CCC(N3CC(c4ccccc4)(c4ccccc4)NC3=O)CC2)c1 [Compound 18i],224
11,Cc1cccc(CN2CCC(N3CC(c4cccs4)(c4cccs4)NC3=O)CC2)c1 [Compound 18ag],107
12,O=C1NC(c2ccccc2)(c2ccccc2)CN1C1CCN(Cc2cccc(Cl)c2)CC1 [Compound 18e],327

# Target: T2, human M3-receptors (Homo sapiens, UniProt P20309)
# T2 construct: expressed in transfected cells; host or cells: CHO-K1 clone cells; crude membrane fraction
# Assay: radioligand binding assay, M3 receptor ([3H]-N-methyl scopolamine)
# Details: membranes of CHO-K1 cells expressing human M3; [3H]-N-methyl scopolamine 0.1-0.3 nM; 90 min, room temperature
# Protocol: as §1, §2, §3, §4
# T2 sequence (P20309 whole entry): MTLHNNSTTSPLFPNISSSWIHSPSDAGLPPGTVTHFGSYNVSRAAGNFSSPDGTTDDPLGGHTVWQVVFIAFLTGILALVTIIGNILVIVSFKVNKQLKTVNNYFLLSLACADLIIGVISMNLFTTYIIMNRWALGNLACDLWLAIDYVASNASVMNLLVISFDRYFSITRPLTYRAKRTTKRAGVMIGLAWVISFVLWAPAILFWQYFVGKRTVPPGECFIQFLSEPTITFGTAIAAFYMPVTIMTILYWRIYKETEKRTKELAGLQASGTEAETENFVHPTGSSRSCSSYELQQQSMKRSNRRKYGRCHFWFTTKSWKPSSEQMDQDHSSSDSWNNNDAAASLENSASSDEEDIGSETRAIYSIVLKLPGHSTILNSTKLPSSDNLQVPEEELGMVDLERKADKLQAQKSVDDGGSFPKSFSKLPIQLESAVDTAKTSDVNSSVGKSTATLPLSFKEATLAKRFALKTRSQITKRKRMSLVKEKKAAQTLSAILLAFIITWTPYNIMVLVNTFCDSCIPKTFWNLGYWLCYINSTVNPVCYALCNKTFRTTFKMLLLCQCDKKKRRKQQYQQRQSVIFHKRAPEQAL
row,Compound,Ki [nM]
1,C[N+]1(CC(=O)c2cccs2)CC[C@@H](N2CC(c3ccc(F)cc3)(c3ccc(F)cc3)NC2=O)C1 (some centres unmarked) [Compound 19bq],1.62
2,C[N+]1(CC(=O)c2cccs2)CC[C@@H](N2CC(c3ccc(F)cc3)(c3ccc(F)cc3)NC2=O)C1 (some centres unmarked) [Compound 19bp],1.96
